US20240207256A1, “CERTAIN CHEMICAL ENTITIES, COMPOSITIONS, AND METHODS” (NeuPharma, Inc, priority 2021, published 2024)

Columns and labels:
Na+/K+-ATPase = Na+/K+-ATPase inhibition; type: biochemical; conditions: read-out: IC50 against Na+/K+-ATPase
[1] = Compound A loading onto CalliSpheres microspheres (residual concentration by HPLC); type: physicochemical; conditions: for Concentration of Residual: 1 g microspheres 100-300 μm, 2 mg in 4 ml NaOAc/HOAc buffer 100 mM pH5.0; for Amount of Compound Loaded: onto 1 g microspheres
Description: Microspheres (1 g, 100-300 μm, CalliSpheres® CallisynBiomedical, Inc.) were immersed into Compound A solution (2 mg in 4 ml of NaOAc/HOAc buffer (100 mM, pH5.0)) using a 10 mL disposable syringe. Residual compound concentration remaining in the depleted loading solution over time was determined by HPLC method.
(§1) HPLC was performed using the following instrument and/or conditions: […]

[2] = Elution of Compound A from loaded microspheres using the T-Apparatus; type: physicochemical; conditions: 50 mL PBS pH 7.4, 25° C.
Description: The microspheres loaded with Compound A were eluted into 50 mL of phosphate buffer solution (PBS, pH 7.4) at 25° C. using a T-Apparatus (Lewis A L, Gonzalez M V, Lloyd A W, et al. DC bead: in vitro characterization of a drug-delivery device for transarterial chemoembolization. J Vasc Interv Radiol, 2006, 17: 335-42). The concentration of Compound A was determined using HPLC method.
as §1

In the case of `C[C@]12CC[C@H](OC(=O)N3CCNCC3)C[C@H]1CC[C@@H]1[C@@H]2CC[C@]2(C)[C@@H](c3ccc(=O)oc3)CC[C@]12O` [Compound A, (3S,5R,8R,9S,10S,13R,14S,17R)-14-hydroxy-10,13-dimethyl-17-(2-oxo-2H-pyran-5-yl)hexadecahydro-1H-cyclopenta[α]phenanthren-3-yl piperazine-1-carboxylate], the IC50 (Na+/K+-ATPase) is reported as about 20 nM, the “Concentration of Residual” value ([1]; time 0 h) is reported as 458000 ng/mL and the “Amount of Compound Loaded” value ([1]; time 0 h) is reported as 0 mg. The “Concentration of Residual” value ([1]; time 0.25 h) was 91000 ng/mL, the “Amount of Compound Loaded” value ([1]; time 0.25 h) was 1.47 mg and the “Concentration of Residual” value ([1]; time 0.5 h) was 81000 ng/mL. For the same compound, the “Amount of Compound Loaded” value ([1]; time 0.5 h) was 1.51 mg, the “Concentration of Residual” value ([1]; time 0.75 h) was 83000 ng/mL and the “Amount of Compound Loaded” value ([1]; time 0.75 h) was 1.50 mg. The “Concentration of Residual” value ([1]; time 1 h) was 60000 ng/mL, the “Amount of Compound Loaded” value ([1]; time 1 h) was 1.59 mg and the “Amount of Compound Eluted” value ([2]; time 0.083 h) was 0.63 mg. The “Concentration of Compound Eluted” value ([2]; time 0.083 h) was 13000 ng/mL, the “Amount of Compound Eluted” value ([2]; time 0.5 h) was 0.67 mg and the “Concentration of Compound Eluted” value ([2]; time 0.5 h) was 14000 ng/mL. The “Amount of Compound Eluted” value ([2]; time 0.75 h) was 0.70 mg, the “Concentration of Compound Eluted” value ([2]; time 0.75 h) was 14000 ng/mL and the “Amount of Compound Eluted” value ([2]; time 1 h) was 0.70 mg. For the same compound, the “Concentration of Compound Eluted” value ([2]; time 1 h) was 14000 ng/mL, the “Amount of Compound Eluted” value ([2]; time 2 h) was 0.76 mg and the “Concentration of Compound Eluted” value ([2]; time 2 h) was 15000 ng/mL. The “Amount of Compound Eluted” value ([2]; time 4 h) was 0.94 mg, the “Concentration of Compound Eluted” value ([2]; time 4 h) was 19000 ng/mL and the “Amount of Compound Eluted” value ([2]; time 6 h) was 1.10 mg. For the same compound, the “Concentration of Compound Eluted” value ([2]; time 6 h) was 22000 ng/mL, the “Amount of Compound Eluted” value ([2]; time 24 h) was 1.21 mg and the “Concentration of Compound Eluted” value ([2]; time 24 h) was 24000 ng/mL.
